# *1 amine or outer side, *2 acyl side, *3 side chain or, on linkers, in order; H or OH if unused. Where a SMILES comes first, the peptide text is derived from it. Bridges are numbered along the chain shown (N, C = ends). Roman numbers before positions name the chains, in order. X2 = NC(CCC(=O)[*:1])CCC(=O)[*:2]
# What was measured:
# HCT116 cells = assay: Cell viability MTS assay, HCT116; assay type: cell-based, human; details: 24 hours
# Description: (§1) BJAB, Jurkat and HCT116 cells (10^5 cells/well) were cultured in 100 µL of culture medium in 96-flat bottom well plates. The next day, cells were treated with the indicated concentrations of the different TRAILmin/DR5 peptides. After 24 hours of treatment cell viability measurement was performed by the MTS assay according to the manufacturer specification (Promega Corporation, Madison, WI, USA).
# Jurkat cells = assay: Cell viability MTS assay, Jurkat; assay type: cell-based, human; details: 24 hours
# Description: as §1
# BJAB cells = assay: Cell viability MTS assay, BJAB; assay type: cell-based, human; details: 24 hours
# Description: as §1
# human TRAIL-R2 = target: T1, human TRAIL-R2 (Homo sapiens, UniProt O14763); assay: Surface plasmon resonance on sensor-immobilized TRAIL-R2; assay type: binding; details: for koff / kon: SPR, 25° C, Langmuir model
# T1 construct: purchased Enzo Life Sciences
# T1 sequence (O14763 56-440): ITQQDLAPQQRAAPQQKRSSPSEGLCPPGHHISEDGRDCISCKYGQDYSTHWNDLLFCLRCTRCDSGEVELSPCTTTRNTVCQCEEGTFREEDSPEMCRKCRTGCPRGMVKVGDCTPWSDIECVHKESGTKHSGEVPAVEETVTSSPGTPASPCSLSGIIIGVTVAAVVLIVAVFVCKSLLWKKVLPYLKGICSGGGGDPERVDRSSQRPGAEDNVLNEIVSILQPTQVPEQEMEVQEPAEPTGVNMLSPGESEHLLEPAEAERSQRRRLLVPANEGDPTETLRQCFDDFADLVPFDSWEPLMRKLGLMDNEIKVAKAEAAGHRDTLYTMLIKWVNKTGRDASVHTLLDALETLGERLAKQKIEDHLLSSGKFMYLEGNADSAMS
# Description: SPR assays were performed on a Biacore T200™, at 25° C. The running buffer was HBS-EP [10 mM HEPES (pH 7.4) containing 0.15 M NaCl, 3.4 mM EDTA and 0.005% (v/v) Tween P20]. The human TRAIL-R2 (Enzo Life Sciences, Farmingdale, NY, USA) receptor was immobilized on a sCM5 sensor chip (GE Healthcare) using the standard amine coupling procedure. The receptors were diluted in 10 mM acetate buffer (pH 5.0) at a concentration of 5 μg/mL. The TRAIL-R2 immobilization level on the sensor chip was 430 RU. Peptides were injected at a flow rate of 5 μL/min for 120 s and allowed to dissociate for an additional 420 s. Surfaces were then regenerated for 5 s with 25 mM HCl. All binding curves were double-referenced (i.e. subtraction of the data of the empty flow cell followed by the subtraction of the data from a running buffer injection cycle).
# Double-referenced SPR binding curves sets were fitted globally using the BIAevaluation 4.1.1 (GE Healthcare Biacore) or TraceDrawer (Ridgeview Diagnostics AB, Uppsala, Sweden) softwares. The signal recorded with the LigandTracer on an empty spot or slide was subtracted from that recorded on cell-carrying slides. The resulting binding curves were analyzed by kinetic distribution analysis using the tool Interaction Map (Ridgeview Diagnostics AB, Uppsala, Sweden). Interaction Map decomposes the kinetic curve recorded for the binding of a homogeneous ligand to a heterogeneous group of targets into its different components. Results are represented as interaction maps (kon versus koff, log scale), where the color of each populated area represents its degree of contribution to the kinetic curve (red = high contribution, blue = low contribution).
# [1] = TRAIL-R2 surface 1, one:one interaction model
# [2] = TRAIL-R2 surface 2, one:one interaction model
koff (human TRAIL-R2),kon (human TRAIL-R2),Rmax (human TRAIL-R2; [1]),Rmax (human TRAIL-R2; [2]),Compound,apoptosis induction in HCT116 cells (HCT116 cells),apoptosis induction in Jurkat cells (Jurkat cells),apoptosis induction in BJAB cells (BJAB cells)
0.0014 s⁻¹,28000 M⁻¹ s⁻¹,38,13,"CC[C@H](C)[C@@H]1NC(=O)[C@H](CCCNC(=N)N)NC(=O)[C@H](CC(N)=O)NC(=O)[C@H](CC(=O)O)NC(=O)[C@H](CC(C)C)NC(=O)[C@@H](NC(=O)[C@H](CC(=O)O)NC(=O)[C@H](Cc2c[nH]c3ccccc23)NC(C)=O)CSSC[C@@H](C(=O)N[C@H](C(=O)N[C@@H](CCCCNC(=O)CCC(N)CCC(=O)NCCCC[C@H](NC(=O)[C@@H](NC(=O)[C@@H]2CSSC[C@H](NC(=O)[C@H](CC(=O)O)NC(=O)[C@H](Cc3c[nH]c4ccccc34)NC(C)=O)C(=O)N[C@@H](CC(C)C)C(=O)N[C@@H](CC(=O)O)C(=O)N[C@@H](CC(N)=O)C(=O)N[C@@H](CCCNC(=N)N)C(=O)N[C@@H]([C@@H](C)CC)C(=O)NCC(=O)N[C@@H](CCCNC(=N)N)C(=O)N[C@@H](CCCNC(=N)N)C(=O)N[C@@H](CCC(N)=O)C(=O)N2)C(C)C)C(=O)N[C@@H](CC(C)C)C(N)=O)C(=O)N[C@@H](CC(C)C)C(N)=O)C(C)C)NC(=O)[C@H](CCC(N)=O)NC(=O)[C@H](CCCNC(=N)N)NC(=O)[C@H](CCCNC(=N)N)NC(=O)CNC1=O (some centres unmarked) [1d] (I: Ac-WDCLDNRIGRRQCVKL-NH2 / II: Ac-WDCLDNRIGRRQCVKL-NH2; disulfide I:3-I:13, II:3-II:13; linker I:15-II:15 via X2; N-terminus and C-terminus assumed)",strong resistance,strong resistance,underwent apoptosis
0.0026 s⁻¹,5300 M⁻¹ s⁻¹,33,11,CC[C@H](C)[C@@H]1NC(=O)[C@H](CCCNC(=N)N)NC(=O)[C@H](CC(N)=O)NC(=O)[C@H](CC(=O)O)NC(=O)[C@H](CC(C)C)NC(=O)[C@@H](NC(=O)[C@H](CC(=O)O)NC(=O)[C@H](Cc2c[nH]c3ccccc23)NC(C)=O)CSSC[C@@H](C(=O)N[C@H](C(=O)N[C@@H](CCCCN)C(=O)N[C@@H](CC(C)C)C(N)=O)C(C)C)NC(=O)[C@H](CCC(N)=O)NC(=O)[C@H](CCCNC(=N)N)NC(=O)[C@H](CCCNC(=N)N)NC(=O)CNC1=O [1m] (Ac-WDCLDNRIGRRQCVKL-NH2; disulfide 3-13; N-terminus and C-terminus assumed),–,–,–
